The structures appear in SMILES notation. Where two headings read alike, the source gives them in different places.

Format in all cases: cell-based
In experiment [1] the test system is Ba/F3-FGFR1-transfected cells in the presence of 10 ng/ml murine IL3. Put plainly: Ba/F3-FGFR1 (plus IL3) cellular proliferation counterscreen, Alamar Blue. Particulars: Mus musculus. As for the experimental part: Ba/F3-FGFR1 (Minus IL3 or Plus IL3) (Cellular Proliferation Assay)
(§1) In a 384 well plate, 100 nl of compound dilution in DMSO was sprayed before adding 50 μl cell culture medium (phenol red free RPMI-1640, 10% FBS, 2 mM L-Glutamine and 50 μg/ml Gentamycin) containing 20000 cells per well of Ba/F3-FGFR1-transfected cells. Cells were put in an incubator at 37° C. and 5% CO2. After 24 hours, 10 μl of Alamar Blue solution (0.5 mM K3Fe(CN)6, 0.5 mM KaFe(CN)6, 0.15 mM Resazurin and 100 mM Phosphate Buffer) was added to the wells, incubated for 4 hours at 37° C. and 5% CO2 before RFU's (Relative Fluorescence Units) (ex. 540 nm., em. 590 nm.) were measured in a flurorescence plate reader.
(§2) As a counterscreen the same experiment was performed in the presence of 10 ng/ml murine IL3.
as §1, with “a 96” for “a 384”, “plate, 180” for “plate, 100 nl of compound dilution in DMSO was sprayed before adding 50”, “containing 10000” for “containing 20000”, “Ba/F3-FGFR1-transfected cells were pipette and 20 μl of compound dilution in DMSO was added.” for “Ba/F3-FGFR1-transfected cells.”, “hours, 40” for “hours, 10”
A general note: A counterscreen serves to expose hits that act by an unwanted route or on another target.

In experiment [2] the test system is Ba/F3-FGFR3-transfected cells in the presence of 10 ng/ml murine IL3. Put plainly: Ba/F3-FGFR3 (plus IL3) cellular proliferation counterscreen, Alamar Blue. Particulars: Mus musculus. As for the experimental part: Ba/F3-FGFR3 (Minus IL3 or Plus IL3) (Cellular Proliferation Assay)
as §1, with “Ba/F3-FGFR3-transfected” for “Ba/F3-FGFR1-transfected”
as §2
as §1, with “a 96” for “a 384”, “plate, 180” for “plate, 100 nl of compound dilution in DMSO was sprayed before adding 50”, “containing 10000” for “containing 20000”, “of Ba/F3-FGFR3-transfected cells were pipette and 20 μl of compound dilution in DMSO was added.” for “of Ba/F3-FGFR1-transfected cells.”, “hours, 40” for “hours, 10”

Experiment [3] has as its system Ba/F3-Flt3-transfected cells in the presence of 10 ng/ml murine IL3. Briefly: Ba/F3-Flt3 (plus IL3) cellular proliferation counterscreen, Alamar Blue. Particulars: Mus musculus, read-out: BAF3-FLT3 (PLUS IL3) 384 well pIC50 (converted). As for the experimental part: Ba/F3-Flt3 (Minus IL3 or Plus IL3) (Cellular Proliferation Assay)
as §1, with “Ba/F3-Flt3-transfected” for “Ba/F3-FGFR1-transfected”
as §2
as §1, with “a 96” for “a 384”, “plate, 180” for “plate, 100 nl of compound dilution in DMSO was sprayed before adding 50”, “containing 10000” for “containing 20000”, “of Ba/F3-Flt3-transfected cells were pipette and 20 μl of compound dilution in DMSO was added.” for “of Ba/F3-FGFR1-transfected cells.”, “hours, 40” for “hours, 10”

The mark [4] stands for this setting: plus IL3, 384 well, read-out: BAF3-FGFR 1 (PLUS IL3) 384 well pIC50 (converted).
The mark [5] stands for this setting: plus 10 ng/ml murine IL3, 384 well, read-out: BAF3-FGFR 3 (PLUS IL3) 384 well pIC50 (converted).
[6] abbreviates: plus IL3, 96 well, read-out: BAF3-FGFR 1 (PLUS IL3) 96 well pIC50 (converted).

In the case of `COc1cc(OC)cc(N(CC#Cc2ncccc2OC)c2ccc3ncc(-c4cccnc4)nc3c2)c1` [Compound 183], the IC50 in experiment [1] (setting [4]), in experiment [2] (setting [5]) and in experiment [3] (plus 10 ng/ml murine IL3) was over 10 µM each time.

As for `COC(=O)C1CCCN1c1cnc2ccc(N(CCO)c3cc(OC)cc(OC)c3)cc2n1` (stereo not drawn) [Compound 172], the IC50 in experiment [1] (setting [4]), in experiment [2] (setting [5]) and in experiment [3] (plus 10 ng/ml murine IL3) was over 10 µM in each case.

Turning to `COc1cc(OC)cc(N(CC2CC2)c2ccc3ncc(C#Cc4cncn4C)nc3c2)c1` [Compound 22], the IC50 in experiment [1] (setting [4]) was over 10 µM; in experiment [3] (plus IL3, 384 well) it was over 10 µM.

In the case of `COc1cc(OC)cc(N(CCO)c2ccc3ncc(-c4ccc(N5CCNCC5)cc4)nc3c2)c1` [Compound 166], the values for the IC50 in experiment [1] (setting [4]), in experiment [2] (setting [5]) and in experiment [3] (plus 10 ng/ml murine IL3) were 4.79 µM, about 6.03 µM and about 5.62 µM, respectively.

For `COc1cc(OC)cc(N(CCNC(C)C)c2ccc3ncc(C(=O)NCCN4CCOCC4)nc3c2)c1` [Compound 160], the IC50 in experiment [1] (setting [4]), in experiment [2] (setting [5]) and in experiment [3] (plus 10 ng/ml murine IL3) was over 10 µM each time.

Take `COc1cc(OC)cc(N(CC2CC2)c2ccc3ncc(C(=O)Nc4cncn4C)nc3c2)c1` [Compound 27]: the IC50 in experiment [1] (setting [6]), in experiment [1] (setting [4]) and in experiment [3] (plus 10 ng/ml murine IL3) was over 10 µM each time.

Take `COc1cc(OC)cc(N(CC2CC2)c2ccc3ncc(N4CCN(CCO)CC4)nc3c2)c1` [Compound 49]: the IC50 in experiment [1] (setting [4]) and in experiment [3] (plus 10 ng/ml murine IL3) was over 10 µM throughout.

As for `COc1cc(OC)cc(N(CCCNC(C)C)c2ccc3ncc(-c4ccnc(N)c4)nc3c2)c1` [Compound 143], the IC50 is 5.62 µM in experiment [1] (setting [4]) and 6.61 µM in experiment [3] (plus 10 ng/ml murine IL3).

Take `COc1cc(OC)cc(N(CCCO)c2ccc3ncc(-c4ccnc(C(=O)NCCCCCN)c4)nc3c2)c1` [Compound 130]: the IC50 in experiment [1] (setting [4]) and in experiment [3] (plus 10 ng/ml murine IL3) was over 10 µM in each case.

Take `COc1cc(OC)cc(N(CCCO)c2ccc3ncc(-c4ccnc(C(=O)N5CCOCC5)c4)nc3c2)c1` [Compound 43]: the IC50 in experiment [1] (setting [4]) and in experiment [3] (plus 10 ng/ml murine IL3) was over 10 µM each time.

Take `COc1cc(OC)cc(N(CCO)c2ccc3ncc(-c4ccc(N5CCOCC5)nc4)nc3c2)c1` [Compound 19]: the IC50 in experiment [1] (setting [4]) and in experiment [3] (plus 10 ng/ml murine IL3) was over 10 µM each time.

For the compound `COc1cc(OC)cc(N(CCCNCC(F)(F)F)c2ccc3ncc(-c4ccnc(C(=O)NCCCN)c4)nc3c2)c1` [Compound 148], the IC50 in experiment [1] (setting [4]) and in experiment [3] (plus 10 ng/ml murine IL3) was over 10 µM throughout.

For the compound `COc1cc(OC)cc(N(CCNC(C)C)c2ccc3ncc(-c4ccnc(C(=O)NCCCN)c4)nc3c2)c1` [Compound 146], the IC50 in experiment [1] (setting [4]) and in experiment [3] (plus 10 ng/ml murine IL3) was over 10 µM throughout.

In the case of `COc1cc(OC)cc(N(CCCO)c2ccc3ncc(-c4ccnc(-c5ccnc(Cl)c5)c4)nc3c2)c1` [Compound 133], the IC50 in experiment [1] (setting [4]) and in experiment [3] (plus 10 ng/ml murine IL3) was over 10 µM throughout.

`COc1cc(OC)cc(N(CCCNCC(F)(F)F)c2ccc3ncc(-c4ccnc(F)c4)nc3c2)c1` [Compound 144]: the IC50 in experiment [1] (setting [4]) and in experiment [3] (plus 10 ng/ml murine IL3) was over 10 µM each time.

With `COc1cc(OC)cc(N(CCCNC(C)C)c2ccc3ncc(-c4ccnc(NC(=O)NC(C)C)c4)nc3c2)c1` [Compound 131], the figures for the IC50 in experiment [1] (setting [4]) and in experiment [3] (plus 10 ng/ml murine IL3) were 3.98 µM and 3.63 µM, respectively.

Turning to `COc1cc(OC)cc(N(CC#Cc2ncccn2)c2ccc3ncc(-c4cccnc4)nc3c2)c1` [Compound 2], the IC50 in experiment [1] (setting [4]) was 7.41 µM; in experiment [3] (plus 10 ng/ml murine IL3), over 10 µM.

As to `COc1cc(OC)cc(N(CC2CC2)c2ccc3ncc(N4CCN(C)CC4)nc3c2)c1` [Compound 64], the IC50 in experiment [1] (setting [4]) was over 10 µM; in experiment [3] (plus IL3, 384 well), over 10 µM.

In the case of `COc1cc(OC)cc(N(CCCO)c2ccc3ncc(-c4cccnc4F)nc3c2)c1` [Compound 149], the IC50 in experiment [1] (setting [4]) and in experiment [3] (plus 10 ng/ml murine IL3) was over 10 µM in each case.

As for `COc1cc(OC)cc(N(CCCNCCCO)c2ccc3ncc(-c4ccnc(C(=O)NCCCCN)c4)nc3c2)c1` [Compound 132], the results for the IC50 in experiment [1] (setting [4]) and in experiment [3] (plus 10 ng/ml murine IL3) were over 10 µM and about 5.5 µM, respectively.

With `COc1cc(OC)cc(N(CCNC(C)C)c2ccc3ncc(-c4ccn[nH]4)nc3c2)c1` [Compound 189], the IC50 in experiment [1] (setting [4]) and in experiment [2] (setting [5]) was over 10 µM each time.

With `COc1cc(OC)cc(N(CC2CC2)c2ccc3ncc(-c4ccnc(N5CCOCC5)c4)nc3c2)c1` [Compound 90], the IC50 in experiment [1] (setting [6]) is over 10 µM; in experiment [2] (plus IL3, 96 well, read-out: BAF3-FGFR 3 (PLUS IL3) 96 well pIC50 (converted)), over 10 µM.

Consider `COc1cc(OC)cc(N(CCCO)c2ccc3ncc(-c4ccnc(Cl)c4)nc3c2)c1` [Compound 136], for which the IC50 in experiment [1] (setting [4]) and in experiment [3] (plus 10 ng/ml murine IL3) was over 10 µM throughout.

With `COc1cc(OC)cc(N(CCCNCC(F)(F)F)c2ccc3ncc(-c4ccn(C)c4)nc3c2)c1` [Compound 5], the IC50 in experiment [1] (setting [4]) and in experiment [3] (plus 10 ng/ml murine IL3) was over 10 µM in each case.

Consider `COc1cc(OC)cc(N(CC2CC2)c2ccc3ncc(C(=O)N4CCC4)nc3c2)c1` [Compound 93], for which the IC50 in experiment [1] (setting [6]), in experiment [1] (setting [4]) and in experiment [3] (plus 10 ng/ml murine IL3) was over 10 µM in each case.

On to `COc1cc(OC)cc(N(CCO)c2ccc3ncc(-n4cnc(CO)c4)nc3c2)c1` [Compound 38], for which the IC50 in experiment [1] (setting [4]) and in experiment [3] (plus 10 ng/ml murine IL3) was over 10 µM throughout.

For `COc1cc(OC)cc(N(CCCNCC(=O)O)c2ccc3ncc(-c4ccnc(C(=O)NCCCCN)c4)nc3c2)c1` [Compound 44], the IC50 in experiment [1] (setting [4]) and in experiment [3] (plus 10 ng/ml murine IL3) was over 10 µM each time.

Take `COc1cc(OC)cc(N(CCN2CCNCC2)c2ccc3ncc(-c4ccc(N)nc4)nc3c2)c1` [Compound 59]: the IC50 in experiment [1] (setting [4]) and in experiment [3] (plus 10 ng/ml murine IL3) was over 10 µM in each case.

Take `COc1cc(OC)cc(N(CCNC(C)C)c2ccc3ncc(-c4ccnn4C4CCCCO4)nc3c2)c1` (stereo not drawn) [Compound 188]: the IC50 in experiment [1] (setting [4]) and in experiment [2] (setting [5]) was over 10 µM each time.

In the case of `COc1cc(OC)cc(N(CC2CC2)c2ccc3ncc(-c4ccnc(N5CCN(C)CC5)c4)nc3c2)c1` [Compound 37], the IC50 in experiment [1] (setting [6]) is 7.59 µM; in experiment [1] (setting [4]), over 10 µM; in experiment [3] (plus IL3, 384 well), 7.94 µM.

With `COCC(CN(c1cc(OC)cc(OC)c1)c1ccc2ncc(-c3cccnc3)nc2c1)OC(C)=O` (single isomer, unassigned) [Compound 52], the IC50 in experiment [1] (setting [4]) and in experiment [3] (plus 10 ng/ml murine IL3) was over 10 µM throughout.

The record behind these values is US10052320B2, “Substituted quinoxalines as FGFR kinase inhibitors” (ASTEX THERAPEUTICS LIMITED, priority 2011, dated 2018).
